Measurements reported in patent US20260263429A1, “INHIBITORS OF CA 2+/CALMODULIN-DEPENDENT PROTEIN KINASE II (CAMKII) THAT DO NOT INHIBIT LONG-TERM POTENTIATION (LTP) INDUCTION AND THERAPEUTIC USES THEREOF” (The Regents of the University of Colorado, A Body Corporate, priority 2023, published 2026).

How the values were obtained:
[1] = tested on: LTP at the hippocampal CA3 to CA1 synapse; assay: LTP induction by HFS, field recordings in acute hippocampal slices of wildtype mice; assay type: cell-based, mouse; details: tatCN21 5 μM; AS283 10 or 30 μM; 15 minutes before, washed out 5 minutes after LTP induction
Experimental: Long term potentiation (LTP) is induced by high frequency stimulation (HFS; 2×100 Hz. 10 sec interval, see Materials and Methods) of CA3-CA1 Schaffer collateral pathways in WT mice and is observed by an increase in slope of field excitatory post synaptic potentials (fEPSPs) that persists after the stimulus is removed. When testing the effect of certain agents on LTP induction (i.e., AS283 or tatCN21), slices were incubated with the agents for 15 minutes before LTP induction and washed out 5 minutes after LTP induction.
Hippocampal slice preparation. WT and mutant mouse hippocampal slices were prepared using P56-70 mice. Isoflurane anesthetized mice were rapidly decapitated, and the brain was dissected in ice-cold high sucrose solution containing 220 mM sucrose, 12 mM MgSO4, 10 mM glucose, 0.2 mM CaCl2), 0.5 mM KCl, 0.65 mM NaH2PO4, 13 mM
NaHCO3, and 1.8 mM ascorbate. […]
Extracellular field recordings. […] Data were analyzed using WinLTP software with slope calculated as the initial rise from 10 to 60% of response peak. […] Responses were recorded for 60 min after HFS. Change in slope was calculated as a ratio of the average slope of the 20 min baseline (before HFS). Bar graphs of % fEPSP slope were calculated by averaging the 50-60-minute timepoints post HFS and normalized to baseline.

[2] = biological target: T1, CaMKII/GluN2B co-localization in HEK293 cells (Homo sapiens, UniProt Q9UQM7); assay: Ionomycin-induced co-localization of GFP-CaMKII and mCherry-2BC in HEK293 cells; assay type: cell-based; details: 10 μM inhibitor
T1 construct: expressed in transfected cells; host or cells: HEK293 cells
Experimental: In a series of exemplary methods, an in vitro kinase assay was used where purified CaMKIIα is incubated at 30° C. with GST-GluA1 alongside ATP. CaMKIIα normally phosphorylates S831 on the GluA1 subunit and this phosphorylation can be measured as a readout of CaMKIIα enzymatic activity (see e.g., FIG. 8B). […] In another exemplary method, binding of purified CaMKIIα to immobilized GST-GluN2B-c was induced by Ca^2+/CaM in the presence of a vehicle (none), 4 mM ADP or with […] AS105. […] At the same time, two exemplary methods were performed to observe ionomycin or chemical LTP (cLTP) induced co-localization of CaMKII and GluN2B either in HEK293 cells co-expressing GFP-CaMKII and mCherry-2BC or dissociated rat hippocampal cultures expressing GFP-CaMKII and mCh-PSD95 intrabody. HEK293 cells, incubating with vehicle or 10 μM AS105, were subjected to ionomycin. Hippocampal cultures, also incubating with either vehicle or 10 μM AS105, were treated with a chemical LTP (cLTP) stimulus (e.g., 100 μM glutamate, 10 μM glycine for 45 seconds). Confocal microscopy images were taken before and after each stimulus.

[3] = tested on: synaptic localization of CaMKII F89G / K42M; assay: Synaptic localization of GFP-CaMKII F89G or K42M mutants in rat hippocampal cultures, basal and cLTP; assay type: cell-based; details: 10 μM NM-PP1, basal and cLTP
Experimental: This conclusion also predicts that the LTP stimulus-induced movement of CaMKII to excitatory synapses should be (i) impaired in the CaMKII F89G mutant; but (ii) normalized by pharmacogenetic rescue with NM-PP1. Indeed, both predictions were observed experimentally (FIGS. 4D-4E).
Chemical LTP stimulation. Chemical LTP (CL TP) was induced with 100 μM glutamate and 10 μM glycine for 45 seconds. Treatments were followed by washout in 5 volumes of fresh ACSF. For biochemistry experiments, neurons were treated with 1 μM TTX to silence neurons prior to treatment with cLTP.
Image analysis of hippocampal neurons. […] 2D maximum intensity projection images were then generated and analyzed using a custom-build program in ImageJ. The program utilizes combinatorial thresholding to mask regions of the cell that contain high intensity PSD-95 puncta (the post-synaptic side of excitatory synapses in dendritic spines) and regions of the dendritic shaft that contain no fluorescence intensity of PSD-95. As a measure of synaptic enrichment, the ratio of mean CaMKII fluorescence intensity of the PSD-95 mask to the mean CaMKII fluorescence intensity in the dendritic shaft mask is measured. Spine growth was assessed by measuring the changes in mCherry cell fill fluorescence intensity within dendritic spine ROIs (F/F0).

T1 sequence (Q9UQM7 whole entry): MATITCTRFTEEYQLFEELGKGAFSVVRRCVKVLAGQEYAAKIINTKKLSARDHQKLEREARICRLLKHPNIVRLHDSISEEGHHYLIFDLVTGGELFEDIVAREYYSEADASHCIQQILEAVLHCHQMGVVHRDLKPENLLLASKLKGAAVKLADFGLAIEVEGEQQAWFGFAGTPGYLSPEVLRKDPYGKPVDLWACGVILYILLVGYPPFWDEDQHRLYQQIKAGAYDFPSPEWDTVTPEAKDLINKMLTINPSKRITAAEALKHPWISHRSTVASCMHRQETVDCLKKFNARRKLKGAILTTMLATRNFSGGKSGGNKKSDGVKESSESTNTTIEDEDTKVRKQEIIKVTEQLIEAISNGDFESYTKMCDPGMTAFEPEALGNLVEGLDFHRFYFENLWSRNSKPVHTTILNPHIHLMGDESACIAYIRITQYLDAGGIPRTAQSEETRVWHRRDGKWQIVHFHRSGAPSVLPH
T1 sequence (Q13224 836-1484 S1303A partner limits assumed): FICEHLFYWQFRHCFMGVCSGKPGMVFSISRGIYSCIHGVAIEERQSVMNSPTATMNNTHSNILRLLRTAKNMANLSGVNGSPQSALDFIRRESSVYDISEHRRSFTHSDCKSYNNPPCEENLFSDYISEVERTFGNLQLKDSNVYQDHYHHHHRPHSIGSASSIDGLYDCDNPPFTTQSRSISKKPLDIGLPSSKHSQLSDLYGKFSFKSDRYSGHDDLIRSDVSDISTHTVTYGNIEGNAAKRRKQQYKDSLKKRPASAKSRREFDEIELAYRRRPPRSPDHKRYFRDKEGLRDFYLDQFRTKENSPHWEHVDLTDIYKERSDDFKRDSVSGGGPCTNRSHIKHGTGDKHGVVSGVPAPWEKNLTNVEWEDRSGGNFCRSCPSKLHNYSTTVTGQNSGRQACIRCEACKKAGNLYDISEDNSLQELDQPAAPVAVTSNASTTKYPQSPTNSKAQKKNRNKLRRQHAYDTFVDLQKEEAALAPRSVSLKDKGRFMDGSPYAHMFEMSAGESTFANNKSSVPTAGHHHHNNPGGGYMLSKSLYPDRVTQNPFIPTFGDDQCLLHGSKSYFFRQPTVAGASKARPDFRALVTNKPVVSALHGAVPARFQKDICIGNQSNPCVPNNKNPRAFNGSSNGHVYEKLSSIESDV

Row | Compound | LTP induction in wildtype mouse slices [1] | ionomycin-induced CaMKII/GluN2B co-localization in HEK293 cells [2] | impaired synaptic localization of CaMKII F89G mutant [3]
1 | NCCNc1cccc(-c2ccnc3[nH]c4ccccc4c23)c1 [AS283] | failed to block LTP induction | failed to inhibit CaMKII binding to GluN2B | 
2 | CC(C)(C)n1nc(Cc2cccc3ccccc23)c2c(N)ncnc21 [NM-PP1] |  |  | rescued
